Entries after “also recorded” stand apart in the source; their conditions may differ.
How the values were obtained:
[1] = test system: KR158 cells stably transfected with GFP-actin; assay: Cell morphology / actin confocal microscopy, KR158 GFP-actin; type: cell-based, mouse; details: 16-18 hrs treatment
Procedure: Doxorubicin studies: KR158 stably transfected with GFP-actin were treated with 25 and 50 μM doxorubicin for 18 hrs continuously.
Cell Morphology Assays and Confocal Microscopy: To assay cytoskeleton morphology, KR158 cells, mouse primary astrocytes, KR158 clones expressing the NF1-GRD constructs, K14553 cells, and A549 were seeded to cover slips and allowed to reattach overnight. Cells were treated for 18 hours with either the indicated concentrations of SA, or the vehicle control DMSO. The cover slips were fixed in 3.7% paraformaldehyde, permeablized in 0.1% Triton-X100, and stained with Alexa Fluor 488-phalloidin (Invitrogen, Carlsbad, Calif., USA) to detect actin and cells were mounted in Prolong Antifade containing DAPI (Invitrogen) to stain nuclei. The cells were imaged on a LSM510 confocal microscope (Carl Zeiss Inc., Jena, Germany). […] KR158 GFP-actin transfected cells were seeded to 8-well chamber slides, allowed to reattach, and then treated with indicated concentrations of SA. Actin structures were monitored continuously over a 16 hr period using confocal microscopy equipped with a growth chamber (37° C., humidified atmosphere and 5% CO2). To compare SA to Rho/Rock inhibitors, KR158 GFP-actin cells were treated with SA or with the Rho pathway inhibitors Rock inhibitor Y-27632 (Sigma, St. Louis, Mo., USA), and the Rho inhibitor C3 transferase (Cytoskeleton, Inc., Denver, Colo., USA, cat# CT04) for 16 hrs, and then examined by confocal microscopy.

[2] = test system: MPNST K16561 cells; assay: XTT cell proliferation assay, K16561; type: cell-based, mouse
Procedure: Establishment of NPcis MPNST cell lines: Mice were euthanized by CO2 asphyxiation and tumors were dissected. The tumor volume was measured. The tumor was then cut in half, and ½ fixed in 4% PFA. The other half was rinsed, then cut into 24 pieces of approximately equal size. Each piece was diced with a razor blade and placed in 1 well of a 24 well plate, along with 625 μL of Triple Express (Gibco, Grand Island, N.Y., USA) and 5 μL of recombinant DNAse (Roche, Indianapolis, Ind., USA). Tumors were triturated, then incubated at 37° C. in a 5% CO2 incubator for 2-5 hours, with an additional trituration halfway through incubation time. At the end of the incubation, tumor pieces were triturated again, and suspended cells were transferred to 1.5 mL eppendorf tubes. […] Both plates were monitored for cell growth, grown up to 10 cm plates, and frozen down in 10% DMSO. […]
XTT Cell Proliferation Assay: Cells were seeded into 96-well plates at a density of 2,000 cells/well and allowed to reattach overnight. Cells were treated with SA, synthetic analogs, camptothecin (NCI Chemotherapeutics Repository, Md., USA), or DMSO control at the indicated concentrations continuously for 48 hours followed by assay in the 96-well plate for relative viable cell number using the dye […] (XTT) and a Wallac-Victor 2 plate reader (Perkin-Elmer, Waltham, Mass., USA). […]

[3] = test system: primary astrocytes from wt, Nf1−/+, and NPcis mice; assay: XTT cell proliferation assay, primary astrocytes; type: cell-based, mouse; details: for inhibition of proliferation: XTT
Procedure: XTT Cell Proliferation Assay: Cells were seeded into 96-well plates at a density of 2,000 cells/well and allowed to reattach overnight. Cells were treated with SA, synthetic analogs, camptothecin (NCI Chemotherapeutics Repository, Md., USA), or DMSO control at the indicated concentrations continuously for 48 hours followed by assay in the 96-well plate for relative viable cell number using the dye […] (XTT) and a Wallac-Victor 2 plate reader (Perkin-Elmer, Waltham, Mass., USA). Absorbance was determined at 450 nm with 650 nm as a reference reading. Primary astrocytes were additionally assayed at a 96 hour time point.
Cell culture: Primary astrocytes were prepared as described previously (Hawes et al., J. Biomol. Screen, 2008, 13:795-803) from 1 day old neonatal brains collected from wt, Nf1−/+, and Nf1−/+; Trp53−/+ cis mice.

[4] = test system: SF-268; assay: NCI60 cell line response to SA, SF-268; type: cell-based, human; details: SF-268, doubling time 33.1 hours

## CC(C)=CCC/C(C)=C/Cc1c(O)cc(/C=C/c2cc(O)c3c(c2)C[C@@H]2C(C)(C)[C@H](O)[C@H](O)C[C@@]2(C)O3)cc1O [SA, Schweinfurthin A]
[1]
  F-actin staining / stress fibers: dramatic loss of F-actin staining
[2]
  inhibition of proliferation (percent viability versus control): dose dependent inhibition of proliferation; also recorded: sensitive
[3]; 48 hours
  inhibition of proliferation: does not inhibit; also recorded: are not; also recorded: resistant
[3]; 96 hrs continuous treatment
  inhibition of proliferation: resistant
[3]; SA concentrations several log-fold higher than the GI50 for KR158
  growth inhibition: ≤ 40%
[3]; at concentrations of 1 μM
  inhibition of Nf1 heterozygous cells: no inhibition
[4]
  logGI50: −5.62

— patent US8686016B2, “Schweinfurthins and uses thereof” (The United States of America, as represented by the …, priority 2009, dated 2014)
